# Experiments:
# [1] = tested on: sterol synthesis by rat liver homogenate; test: CSI screen: inhibition of sterol synthesis (14C-acetate incorporation into nonsaponifiable lipid) by rat liver homogenate; assay type: biochemical; details: one-hour period, footnote: adjusted for a standard IC50 value for compactin (internal standard)
# Description: The ability of compounds of the present invention to inhibit the biosynthesis of cholesterol was measured by two methods. A first method (designated CSI screen) utilized the procedure described by R. E. Dugan et al., Archiv. Biochem. Biophys., (1972), 152, 21-27. In this method, the level of HMG-CoA enzyme activity in standard laboratory rats is increased by feeding the rats a chow diet containing 5% cholestyramine for four days, after which the rats are sacrificed.
# The rat livers are homogenized, and the incorporation of cholesterol-^14 C-acetate into nonsaponifiable lipid by the rat liver homogenate is measured. The micromolar concentration of compound required for 50% inhibition of sterol synthesis over a one-hour period is measured, and expressed as an IC50 value.
# HMG-CoA reductase = target: T1, HMG-CoA reductase (Rattus norvegicus, UniProt P51639); test: COR screen: conversion of 14C-HMG-CoA to 14C-mevalonate by purified HMG-CoA reductase; assay type: biochemical; details: purified enzyme preparation, footnote: adjusted for a standard IC50 value for compactin (internal standard)
# T1 sequence (P51639 1-887): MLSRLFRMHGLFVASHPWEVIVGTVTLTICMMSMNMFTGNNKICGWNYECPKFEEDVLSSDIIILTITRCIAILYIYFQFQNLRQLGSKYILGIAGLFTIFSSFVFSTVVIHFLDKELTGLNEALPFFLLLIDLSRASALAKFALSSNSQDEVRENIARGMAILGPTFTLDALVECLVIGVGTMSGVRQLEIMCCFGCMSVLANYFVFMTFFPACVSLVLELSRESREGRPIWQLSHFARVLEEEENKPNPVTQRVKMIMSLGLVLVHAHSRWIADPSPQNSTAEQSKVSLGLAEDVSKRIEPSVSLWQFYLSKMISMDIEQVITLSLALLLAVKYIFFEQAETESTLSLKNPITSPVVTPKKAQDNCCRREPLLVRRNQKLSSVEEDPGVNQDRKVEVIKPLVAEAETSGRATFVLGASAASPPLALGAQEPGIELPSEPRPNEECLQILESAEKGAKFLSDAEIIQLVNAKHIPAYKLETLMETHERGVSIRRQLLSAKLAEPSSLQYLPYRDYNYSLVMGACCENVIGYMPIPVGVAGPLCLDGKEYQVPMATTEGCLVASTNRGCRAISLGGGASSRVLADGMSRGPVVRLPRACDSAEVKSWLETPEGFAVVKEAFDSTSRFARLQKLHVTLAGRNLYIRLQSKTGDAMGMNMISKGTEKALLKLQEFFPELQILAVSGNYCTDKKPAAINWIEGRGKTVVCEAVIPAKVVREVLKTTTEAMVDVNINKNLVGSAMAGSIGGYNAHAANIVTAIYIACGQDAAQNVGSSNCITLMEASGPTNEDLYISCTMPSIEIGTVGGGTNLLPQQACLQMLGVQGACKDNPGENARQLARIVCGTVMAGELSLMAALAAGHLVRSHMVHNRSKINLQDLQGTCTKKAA
# Description: A second method (designated COR screen) employed the procedure detailed by T. Kita, et al., J. Clin. Invest., (1980), 66: 1094-1100. In this method, the amount of ^14 C-HMG-CoA converted to ^14 C-mevalonate in the presence of a purified enzyme preparation of HMG-CoA reductase was measured. The micromolar concentration of compound required for 50% inhibition of cholesterol synthesis was measured and recorded as an IC50 value.
SMILES,IC50 [1] [nM],IC50 (HMG-CoA reductase) [nM]
"CC(C)c1ccc(-c2ccc(F)cc2)n1CC[C@H]1C[C@H](O)CC(=O)O1 (relative stereo) [Compound 1, trans-6-[2-[2-(4-fluorophenyl)-5-(1-methylethyl)-1H-pyrrol-1-yl]ethyl]tetrahydro-4-hydroxy-2H-pyran-2-one]",480,280
"CC(C)c1c(Cl)c(Cl)c(-c2ccc(F)cc2)n1CC[C@H]1C[C@H](O)CC(=O)O1 (relative stereo) [Compound 2, 6-[2-[2-(4-fluorophenyl)-3,4-dichloro-5-(1-methylethyl)-1H-pyrrol-1-yl]ethyl]tetrahydro-4-hydroxy-trans-2H-pyran-2-one]",160,24
"CC[C@H](C)C(=O)O[C@H]1CCC=C2C=C[C@H](C)[C@H](CC[C@@H]3C[C@@H](O)CC(=O)O3)[C@H]21 [Compound 5, Compactin, reference compound]",26,28

# Next, values leading:
IC50 [1] [nM],IC50 (HMG-CoA reductase) [nM],SMILES
220,1,"CC(C)c1c(Br)c(Br)c(-c2ccc(F)cc2)n1CC[C@H]1C[C@H](O)CC(=O)O1 (relative stereo) [Compound 3, 6-[2-[2-(4-fluorophenyl)-3,4 dibromo-5-(1-methylethyl)-1H-pyrrol-1-yl]ethyl]tetrahydro-4-hydroxy-trans-2H-pyran-2-one]"
110,80,"COC(=O)c1c(C(=O)OC)c(C(C)C)n(CC[C@@H]2C[C@@H](O)CC(=O)O2)c1-c1ccc(F)cc1 (relative stereo) [Compound 4, Dimethyl-2-(4-Fluorophenyl)-5-(1-methylethyl)-1-[2-(tetrahydro-4-hydroxy-6-oxo-2H-pyran-2-yl)ethyl]-1H-pyrrole-3,4-dicarboxylate]"
